From US12257287B2, “Glucagon-derived peptide and use thereof” (Tianjin Institute of Pharmaceutical Research Co., Ltd., priority 2018, dated 2025)
Values after ≈ are worked out from the molar mass of the structure shown. Marks after values point to notes of the source that are not given here. Numbered stars: 1 amine (or outer) side, 2 acyl side, 3 side chain; on linkers, the order of the positions; unused ones are H or OH. Square brackets hold non-standard residues; d marks the D form. Side chains are listed from the residue outwards. Peptide text beside a SMILES is read from it. * marks the point of attachment. C18 diacid = O=C(O)CCCCCCCCCCCCCCCCC(=O)*; γGlu = O=C(O)[C@H](CCC(=O)[*:2])N[*:1]; AEEA = NCCOCCOCC(=O)O; Aib = CC(C)(N)C(=O)O

Assays:
[1] = Glucose tolerance test in glucose-loaded DIO mice; assay type: in vivo; parameters: AUC reduction rate (%), Table 6: concentration or dose not given beside the values; conditions: for AUC of blood glucose, Table 6: Example 4, DIO mice under glucose load, methods as in Example 3; for AUC reduction rate (%), Table 6: Example 4, compared with model control group, DIO mice under glucose load
Description: DIO mice fasted for 16 h, and 1 h after administration by subcutaneous injection, glucose solution (1 g/kg) was given intraperitoneally for glucose tolerance test. Blood glucose values were measured at 0.5, 1 and 1.5 h after glucose administration. The area under the blood glucose concentration curve (AUC) was calculated and compared with that of the model control group, and the blood glucose inhibition rate (%) was calculated.
(§1) Methods are the same as that in Example 3, the test results of effects on body weight are shown in Table 5, and the effects on blood glucose are shown in Table 6. In the table, 5 #-9 # are compound 27, compound 35, compound 54, compound 57, and compound 66, respectively.

[2] = Effect on body weight of DIO mice after 14 days' administration; assay type: in vivo, C57BL/6J mice; conditions: positive values indicate a decrease; for body weight change, Table 5: Example 4, DIO mice, 14 days' administration, methods as in Example 3
Text: C57BL/6J mice (n=35), model group (n=30) were fed with H10060 high-fat diet to induce obesity (DIO), blank control group (n=5) were fed with standard diet, both for 34 weeks. One day before the first administration, the model group was randomly divided into groups according to their body weight (average body weight range 45.0-52.0 g), with 5 mice in each group, which respectively were model control group, positive control group (semaglutide), and test sample group (1 #-4 # are compound 1, compound 4, compound 6 and compound 22, respectively). The blank control group and model control group were given saline subcutaneously every day, while the positive control group and test sample group were administrated by subcutaneous injection every day for 14 days. The body weight of the animals was weighed and recorded every day, and the change rate of body weight (%) was calculated by comparing the body weight at the last administration day with the initial body weight. (initial body weight−last body weight)/initial body weight=body weight change rate (%). Calculation formula: […]
Calculated positive values indicate a decrease and negative values indicate an increase.
as §1

[3] = molecular target: T1, GC receptor (Homo sapiens, UniProt P47871); experiment: GC receptor mediated cAMP production in vitro (HEK293 cells transfected with GC receptor); assay type: cell-based; conditions: 20 min at 37° C., read-out: GCGR (nM EC50)
T1 construct: expressed in transfected cells; host or cells: HEK293 cells
Text: The medium was removed, the cells were lysed, and cAMP values were detected referring to the detection method described for the assay kit.

[4] = Short-term administration: food intake and body weight in DIO mice; assay type: in vivo; conditions: 30 nmol/kg once every 24 h, twice, − decrease
Description: Method: diet-induced obese mice (DIO) with an average body weight of 52.5 g were divided into model control and test groups, 5 mice in each group. The test samples were dissolved in 10 mM PBS of pH7.4, injected once every 24 h at a dose of 30 nmol/kg, and administered twice. The model group was injected with solvent. Changes in food intake and body weight at 48 hours were measured, and the change rates were calculated compared to the day before administration.

[5] = Accelerated chemical stability in injection solvent system (HPLC-UV); assay type: physicochemical; conditions: 14 days, phosphate buffer pH 7.3 with Tween 80 and phenol, main peak area vs day 0
Description: The chemical stability of the compounds of the present invention in injection solution systems was evaluated by an accelerated stability test. Methods: an appropriate amount of compound of Example 1 was weighed, and dissolved in 10 mM pH8.5 sodium hydrogen phosphate buffer. The final pH value of the solution was adjusted to 7.3 with 0.1 N hydrochloric acid, and proper amounts of Tween 80 and phenol were added. The mixture was placed at 10° C. and 37° C. for 14 days, and detected by HPLC-UV. The main peak area was obtained by peak area normalization method, and the changes compared with day 0 were investigated. The HPLC detection method was the same as that in Example 6, and the mobile phase gradient was appropriately adjusted according to the situation of chromatographic peak separation.

[6] = physchem; assay type: physicochemical
[7] = pH 7.5, Solubility, pH 7.5, 10 mM phosphate buffer
[8] = pH 7.5, Solubility, pH 7.5, 20 mM phosphate buffer
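For Solubility in this document: compound added at 2 mg per mL of phosphate buffer, with the dissolved amount determined in the supernatant.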

T1 sequence (P47871 26-477): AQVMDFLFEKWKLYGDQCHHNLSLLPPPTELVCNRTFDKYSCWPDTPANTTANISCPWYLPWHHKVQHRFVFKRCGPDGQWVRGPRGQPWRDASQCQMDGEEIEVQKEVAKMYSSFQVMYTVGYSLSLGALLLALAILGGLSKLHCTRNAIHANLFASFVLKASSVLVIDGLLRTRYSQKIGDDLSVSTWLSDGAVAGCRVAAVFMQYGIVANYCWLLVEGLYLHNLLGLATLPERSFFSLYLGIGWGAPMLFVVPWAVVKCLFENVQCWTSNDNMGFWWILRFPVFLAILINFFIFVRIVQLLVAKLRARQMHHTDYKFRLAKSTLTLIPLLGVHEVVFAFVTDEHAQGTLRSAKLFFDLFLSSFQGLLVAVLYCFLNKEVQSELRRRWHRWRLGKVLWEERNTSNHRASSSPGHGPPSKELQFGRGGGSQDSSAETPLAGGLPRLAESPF

Compound	EC50 [3] [nM]	AUC of blood glucose, Table 6 [1] [mmol·h/L]	AUC reduction rate (%), Table 6 [1]	body weight change, Table 5 [2]	solubility [6, 7] [µg/mL]	solubility [6, 8] [µg/mL]	other results
CCCCCCCCCCCCCCCC(=O)N[C@@H](CCC(=O)N[C@@H](CCC(=O)NCCCC[C@H](NC(=O)[C@H](CC(=O)O)NC(=O)[C@H](CO)NC(=O)[C@@H](NC(=O)[C@H](Cc1ccccc1)NC(=O)[C@@H](NC(=O)CNC(=O)[C@H](CCC(N)=O)NC(=O)C(C)(C)NC(=O)[C@@H](N)Cc1c[nH]cn1)[C@@H](C)O)[C@@H](C)O)C(=O)N[C@@H](CO)C(=O)N[C@@H](CCCCN)C(=O)N[C@@H](Cc1ccc(O)cc1)C(=O)N[C@@H](CC(C)C)C(=O)N[C@@H](CCC(=O)O)C(=O)N[C@@H](CCC(=O)O)C(=O)N[C@@H](CCCNC(=N)N)C(=O)N[C@@H](C)C(=O)N[C@@H](C)C(=O)N[C@@H](CCCCN)C(=O)N[C@@H](CCC(=O)O)C(=O)N[C@@H](Cc1ccccc1)C(=O)N[C@H](C(=O)N[C@@H](CCC(=O)O)C(=O)N[C@@H](Cc1c[nH]c2ccccc12)C(=O)N[C@@H](CC(C)C)C(=O)N[C@@H](CCC(=O)O)C(=O)NCC(=O)NCC(=O)N1CCC[C@H]1C(=O)N[C@@H](CO)C(=O)N[C@@H](CO)C(=O)NCC(N)=O)C(C)C)C(=O)O)C(=O)O [Compound 7] (HELM PEPTIDE1{H.[Aib].Q.G.T.F.T.S.D.K.S.K.Y.L.E.E.R.A.A.K.E.F.V.E.W.L.E.G.G.P.S.S.G.[am]}|PEPTIDE2{[CCCCCCCCCCCCCCCC(=O)[*:2]].[gGlu].[gGlu]}$PEPTIDE1,PEPTIDE2,10:R3-3:R2$$$V2.0; N-terminus assumed)	0.026	–	–	–	–	–	AUC of blood glucose, Table 6 ([1]; listed as 7#): 7.26 ± 1.77 mmol·h/L; AUC reduction rate (%), Table 6 ([1]; listed as 7#): 63.4** %; body weight change, Table 5 ([2]; listed as 7#): 21.45
HAibQGTFTSDYSKYLEEK*RAREFVEWLLEAGGPSSG-Amid (HXQGTFTSDYSKYLEEKRAREFVEWLLEAGGPSSG; HELM PEPTIDE1{H.[Aib].Q.G.T.F.T.S.D.Y.S.K.Y.L.E.E.K.R.A.R.E.F.V.E.W.L.L.E.A.G.G.P.S.S.G.[am]}|PEPTIDE2{[CCCCCCCCCCCCCCCC(=O)[*:2]].[gGlu].[gGlu]}$PEPTIDE1,PEPTIDE2,17:R3-3:R2$$$V2.0; N-terminus assumed; SMILES CCCCCCCCCCCCCCCC(=O)N[C@@H](CCC(=O)N[C@@H](CCC(=O)NCCCC[C@H](NC(=O)[C@H](CCC(=O)O)NC(=O)[C@H](CCC(=O)O)NC(=O)[C@H](CC(C)C)NC(=O)[C@H](Cc1ccc(O)cc1)NC(=O)[C@H](CCCCN)NC(=O)[C@H](CO)NC(=O)[C@H](Cc1ccc(O)cc1)NC(=O)[C@H](CC(=O)O)NC(=O)[C@H](CO)NC(=O)[C@@H](NC(=O)[C@H](Cc1ccccc1)NC(=O)[C@@H](NC(=O)CNC(=O)[C@H](CCC(N)=O)NC(=O)C(C)(C)NC(=O)[C@@H](N)Cc1c[nH]cn1)[C@@H](C)O)[C@@H](C)O)C(=O)N[C@@H](CCCNC(=N)N)C(=O)N[C@@H](C)C(=O)N[C@@H](CCCNC(=N)N)C(=O)N[C@@H](CCC(=O)O)C(=O)N[C@@H](Cc1ccccc1)C(=O)N[C@H](C(=O)N[C@@H](CCC(=O)O)C(=O)N[C@@H](Cc1c[nH]c2ccccc12)C(=O)N[C@@H](CC(C)C)C(=O)N[C@@H](CC(C)C)C(=O)N[C@@H](CCC(=O)O)C(=O)N[C@@H](C)C(=O)NCC(=O)NCC(=O)N1CCC[C@H]1C(=O)N[C@@H](CO)C(=O)N[C@@H](CO)C(=O)NCC(N)=O)C(C)C)C(=O)O)C(=O)O) [Compound 8, 32; * = -γE-γE-OC16H31]	–	8.11 ± 1.92	59.2** %	24.1	–	–	–
CC(C)C[C@H](NC(=O)[C@H](Cc1c[nH]c2ccccc12)NC(=O)[C@H](C)NC(=O)[C@@H](NC(=O)[C@H](Cc1ccccc1)NC(=O)[C@H](CCC(=O)O)NC(=O)[C@H](CCCCN)NC(=O)[C@H](C)NC(=O)[C@H](C)NC(=O)[C@H](CCCNC(=N)N)NC(=O)[C@H](CCC(=O)O)NC(=O)[C@H](CCC(=O)O)NC(=O)[C@H](CC(C)C)NC(=O)[C@H](Cc1ccc(O)cc1)NC(=O)[C@H](CCCCN)NC(=O)[C@H](CO)NC(=O)[C@H](CCCCNC(=O)COCCOCCNC(=O)COCCOCCNC(=O)CC[C@H](NC(=O)CCCCCCCCCCCCCCCCC(=O)O)C(=O)O)NC(=O)[C@H](CC(=O)O)NC(=O)[C@H](CO)NC(=O)[C@@H](NC(=O)[C@H](Cc1ccccc1)NC(=O)[C@@H](NC(=O)CNC(=O)[C@H](CCC(N)=O)NC(=O)C(C)(C)NC(=O)[C@@H](N)Cc1c[nH]cn1)[C@@H](C)O)[C@@H](C)O)C(C)C)C(=O)N[C@@H](CCC(=O)O)C(=O)N[C@@H](C)C(=O)NCC(=O)NCC(=O)N1CCC[C@H]1C(=O)N[C@@H](CO)C(=O)N[C@@H](CO)C(=O)NCC(N)=O [Compound 22] (H-H[Aib]QGTFTSDK([AEEA-AEEA-γGlu-C18 diacid])SKYLEERAAKEFVAWLEAGGPSSG-NH2; N-terminus assumed)	0.018	–	–	–	> 2000	> 2000	Rate of change in food intake (%) ([4]; at 48 hours vs day before administration): −62%; Body weight change ([4]; at 48 hours): -2.6 g; Change in purity % (10° C.) ([5]; 10° C.): −2.0%; Change in purity % (37° C.) ([5]; 37° C.): −5.7%
semaglutide [reference compound]	–	8.33 ± 1.09	58.1** %	16.29	–	–	AUC of blood glucose, Table 4 ([1]; DIO mice fasted 16 h, glucose 1 g/kg i.p. 1 h after s.c. administration, 0.5, 1, 1.5 h): 8.97 ± 1.27 mmol·h/L; AUC reduction rate (%), Table 4 ([1]; blood glucose inhibition rate compared with model control group, DIO mice, glucose 1 g/kg i.p.): 57.7** %; body weight change rate, Table 3 ([2]; DIO mice, subcutaneous injection every day for 14 days, (initial−last)/initial): 13.20%
CCCCCCCCCCCCCCCC(=O)N[C@@H](CCC(=O)N[C@@H](CCC(=O)NCCCC[C@H](NC(=O)[C@H](CCC(=O)O)NC(=O)[C@H](CCC(=O)O)NC(=O)[C@H](CC(C)C)NC(=O)[C@H](Cc1ccc(O)cc1)NC(=O)[C@H](CCCCN)NC(=O)[C@H](CO)NC(=O)[C@H](Cc1ccc(O)cc1)NC(=O)[C@H](CC(=O)O)NC(=O)[C@H](CO)NC(=O)[C@@H](NC(=O)[C@H](Cc1ccccc1)NC(=O)[C@@H](NC(=O)CNC(=O)[C@H](CCC(N)=O)NC(=O)C(C)(C)NC(=O)[C@@H](N)Cc1c[nH]cn1)[C@@H](C)O)[C@@H](C)O)C(=O)N[C@@H](CCCNC(=N)N)C(=O)N[C@@H](C)C(=O)N[C@@H](CCCNC(=N)N)C(=O)N[C@@H](CCC(=O)O)C(=O)N[C@@H](Cc1ccccc1)C(=O)N[C@H](C(=O)N[C@@H](C)C(=O)N[C@@H](Cc1c[nH]c2ccccc12)C(=O)N[C@@H](CC(C)C)C(=O)N[C@@H](CC(C)C)C(=O)N[C@@H](CCC(=O)O)C(=O)NCC(=O)NCC(=O)N1CCC[C@H]1C(=O)N[C@@H](CO)C(=O)N[C@@H](CO)C(=O)NCC(N)=O)C(C)C)C(=O)O)C(=O)O [Compound 9] (HELM PEPTIDE1{H.[Aib].Q.G.T.F.T.S.D.Y.S.K.Y.L.E.E.K.R.A.R.E.F.V.A.W.L.L.E.G.G.P.S.S.G.[am]}|PEPTIDE2{[CCCCCCCCCCCCCCCC(=O)[*:2]].[gGlu].[gGlu]}$PEPTIDE1,PEPTIDE2,17:R3-3:R2$$$V2.0)	–	8.71 ± 2.10	56.2** %	19.9	1500 (≈ 347 µM)	1070 (≈ 247 µM)	solubility ([6]; pH 8, Solubility, pH 8.0, 10 mM phosphate buffer): > 2000 µg/mL; solubility ([6]; pH 8, Solubility, pH 8.0, 20 mM phosphate buffer): 1760 µg/mL (≈ 407 µM)
